Columns and labels:
L1 5′UTR CpG islands = test: Bisulfite analysis of L1 5′UTR DNA methylation in NSCs; type: cell-based, rat; details: treatment for 4-days
Description: Genomic DNA from NSCs was isolated using standard phenol-chloroform extraction techniques. Subsequently, DNA was digested with the restriction enzyme EcoRI and the bisulfite conversion reaction was performed using the Epitect kit (Quiagen), following manufacturer's instructions. Primers were designed based on the rat L1 sequence Mlvi2, using Methyl Primer Express; […]. PCR products were cloned into TOPO TA 2.1 plasmids (Invitrogen) and 40 bacterial colonies were analyzed by sequencing.

MeCP2 and Sox2 = test: Co-immunoprecipitation between MeCP2 and Sox2 in NSCs; type: cell-based, rat; details: in the presence of 5-Aza
Description: Immunofluorescence for EGFP was performed as previously described (11). A non-transgenic animal was used to measure the background fluorescence in the brain and to establish a threshold for detection. Western blotting was carried out using standard protocols with the following antibodies: mouse anti-Actin (1/500, Ambion), rabbit anti-MeCP2 (1/1000, Imgenex or Upstate), and rabbit anti-Sox2 (1/100, Chemicon). All secondary antibodies were purchased from Jackson ImmunoResearch. For co-immunoprecipitation, the Nuclear Complex Co-IP kit (Active Motif) was used, following the manufacturer's protocol with the highest stringency buffers.

[1] = system: L1 promoter region (5′UTR); test: Chromatin immunoprecipitation (ChIP) on the endogenous rat L1 promoter region in NSCs; type: cell-based; details: 500 ng/ml, 4 days
Excerpt: ChIP assay was done essentially following the manufacturer's protocol using a ChIP assay kit (Upstate). Antibodies used were anti-MeCP2 (Upstate), Sox2 (Chemicon), and IgG. Purified DNA was amplified by PCR using primers for the rat L1 5′UTR promoter region (L1.3, accession # X03095).

L1 5′UTR promoter = test: L1 5′UTR-Luc luciferase reporter assay in MeCP2 KO neuroepithelial cells; type: cell-based, mouse; details: Sox2 overexpression in MeCP2 KO neuroepithelial cells
Description: Rat NSCs were isolated, characterized and cultured as described (31,32). For neuronal differentiation, cells were cultured in N2 medium (Invitrogen) containing retinoic acid (RA, 1 μM, Sigma) and forskolin (5 μM, Sigma) for 4 days (11). Freshly isolated neuroepithelial cells from time-pregnant midgestation (E11.5) telencephalons from WT and MeCP2 KO sibling mouse embryos from the same background (C57BL/6J) were briefly cultured for 2-3 passages in FGF-2 as described elsewhere (19). Primary skin fibroblasts were isolated from tail biopsy and cultured in DMEM (Invitrogen) with 10% FBS (Invitrogen). Samples of all isolated cells were used for genotyping using previously described primers (33). Plasmid transfections were done by electroporation following the manufacturer's instructions (Amaxa Biosystem).
The L1 5′UTR-Luc plasmid was methylated by […] according to the manufacturer's protocol. Complete methylation was checked by digestion with Hpa II restriction enzyme. Luciferase activity was measured with the Dual-Luciferase reporter assay system (Promega) according to the manufacturer's protocol. Luciferase activity was usually measured 48 h after transfection. A plasmid containing the Renilla luciferase gene was used as an internal control. All the experiments were done at least 3 times independently and transfection efficiency was about 30% for all samples. […]

Row | Sox2 binding / association to the L1 promoter region (ChIP) ([1]; listed as 5-Azacitidine) | Compound | methylation of the 5′UTR L1 region (5 CpG sites, bisulfite) (L1 5′UTR CpG islands) | amount of MeCP2 in association with Sox2 in solution (Co-IP) (MeCP2 and Sox2) | MeCP2 ChIP signal / association to the L1 promoter region [1] | Sox2 binding / association to the L1 promoter region (ChIP) [1] | MeCP2 ChIP signal / association to the L1 promoter region ([1]; listed as 5-Azacitidine) | reduction of luciferase expression (L1 promoter activity) (L1 5′UTR promoter)
1 | not Sox2 association | Nc1ncn([C@@H]2O[C@H](CO)[C@@H](O)[C@H]2O)c(=O)n1 [5-Azacytidine] | completely removed methyl radicals | increased the amount of MeCP2 in association with Sox2 in solution | the MeCP2 ChIP signal was lost | did not prevent Sox2 binding to the L1 promoter | reduced MeCP2 | –
2 | – | Sox2: transcriptional factor Sox2, overexpressed in MeCP2 KO neuroepithelial cells | – | – | – | – | – | approximately 50%
